Reference: ChEMBL document CHEMBL1129469, “Nonpeptide angiotensin II receptor antagonists: the next generation in antihypertensive therapy” (J Med Chem, 1996)

How the values were obtained:
Rattus norvegicus [1] = assay: Intravenous effective dose required for lowering blood pressure in renal hypertensive rats (RHR); format: functional
HASMC = assay: Inhibitory activity against Ang II-induced proliferation of human aortic smooth muscle cells in a dose dependent manner; format: functional, cell-based
Rattus norvegicus [2] = species: Rattus norvegicus; assay: Oral effective dose required for lowering blood pressure in renal hypertensive rats (RHR); format: functional
Oryctolagus cuniculus = species: Oryctolagus cuniculus; assay: Compound was tested for its antagonistic activity against angiotensin II-induced contractions in rabbit aorta; format: functional
Rattus norvegicus [3] = species: Rattus norvegicus; assay: pD'2 value was evaluated against in rat portal vein; format: functional
Rattus norvegicus [4] = assay: Effective dose was evaluated in pithed normotensive rats by intraveneous administration; format: functional; conditions: iv
[5] = Inhibitory activity was evaluated against Angiotensin II receptor, type 2
Rattus norvegicus [6] = assay: Effective dose was evaluated in pithed normotensive rats by oral administration; format: functional
Rattus norvegicus [7] = assay: Effective dose required for inhibition of Ang II-induced pressor response in conscious rats; format: functional
[8] = biological target: T1, Type-1 angiotensin II receptor (Cavia porcellus, UniProt Q9WV26); assay: In vitro antagonistic potency against Angiotensin II receptor, type 1 in guinea pig adrenal membrane; format: functional, cell membranes
T1 sequence (Q9WV26 whole entry): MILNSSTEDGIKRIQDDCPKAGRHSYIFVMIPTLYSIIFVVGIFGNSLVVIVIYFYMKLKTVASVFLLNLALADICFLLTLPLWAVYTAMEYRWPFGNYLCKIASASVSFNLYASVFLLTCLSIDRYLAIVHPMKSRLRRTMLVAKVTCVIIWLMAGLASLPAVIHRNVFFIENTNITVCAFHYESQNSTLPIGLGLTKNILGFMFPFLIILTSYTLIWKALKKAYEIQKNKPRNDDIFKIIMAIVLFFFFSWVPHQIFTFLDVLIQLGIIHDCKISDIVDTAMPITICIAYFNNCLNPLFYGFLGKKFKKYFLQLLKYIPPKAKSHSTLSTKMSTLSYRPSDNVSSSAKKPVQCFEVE

Rattus norvegicus [9] = assay: Dose dependent inhibition of pressor responses to Ang-II receptor in conscious normotensive rat by intraduodenal administration; format: functional; conditions: read-out: ID50 (the source's name)
Rattus norvegicus [10] = assay: Dose dependent inhibition of pressor responses to Ang-II in conscious normotensive rat by bolus intravenous administration; format: functional; conditions: read-out: ID50 (the source's name)
[11] = biological target: T2, Angiotensin II receptor (AT-1) type-1 (Rattus norvegicus, UniProt P29089+P25095); assay: Binding affinity was evaluated towards Angiotensin II receptor, type 1 in rat adrenal membrane; format: cell membranes
T2 sequence (P29089 whole entry): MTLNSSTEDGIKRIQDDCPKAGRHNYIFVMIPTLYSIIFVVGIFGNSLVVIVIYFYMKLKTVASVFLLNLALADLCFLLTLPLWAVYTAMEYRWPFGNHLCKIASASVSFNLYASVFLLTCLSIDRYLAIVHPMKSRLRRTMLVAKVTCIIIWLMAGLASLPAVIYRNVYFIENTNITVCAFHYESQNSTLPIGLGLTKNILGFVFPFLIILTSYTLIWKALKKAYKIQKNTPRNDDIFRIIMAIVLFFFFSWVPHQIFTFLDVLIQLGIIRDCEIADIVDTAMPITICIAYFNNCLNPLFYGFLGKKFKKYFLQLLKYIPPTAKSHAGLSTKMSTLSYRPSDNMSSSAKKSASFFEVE
T2 sequence (P25095 whole entry): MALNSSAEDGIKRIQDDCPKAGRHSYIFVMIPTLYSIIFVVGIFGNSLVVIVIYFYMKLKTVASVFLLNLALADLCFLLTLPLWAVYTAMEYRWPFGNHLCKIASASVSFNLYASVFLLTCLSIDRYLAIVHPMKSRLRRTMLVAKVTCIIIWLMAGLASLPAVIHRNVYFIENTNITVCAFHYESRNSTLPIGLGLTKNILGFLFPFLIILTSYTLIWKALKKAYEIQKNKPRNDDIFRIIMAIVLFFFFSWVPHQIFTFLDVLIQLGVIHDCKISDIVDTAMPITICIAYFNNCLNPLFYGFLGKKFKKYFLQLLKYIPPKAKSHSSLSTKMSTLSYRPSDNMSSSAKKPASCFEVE

[12] = biological target: T2, Angiotensin II receptor (AT-1) type-1; assay: Inhibitory activity against Angiotensin II receptor, type 1 in rat aortic membrane; format: cell membranes
[13] = Oral bioavailability in rat; format: ADME, organism-based; conditions: in vivo
[14] = biological target: T2, Angiotensin II receptor (AT-1) type-1; assay: In vitro antagonistic potency against Angiotensin II receptor, type 1 in rat liver; format: functional, tissue-based
[15] = Oral Bioavailability was evaluated in cynomolgus monkeys by oral administration; format: ADME, organism-based, Macaca fascicularis; conditions: cynomolgus monkey, in vivo
[16] = Oral Bioavailability was evaluated in dog by oral administration; format: ADME, organism-based, Canis lupus familiaris; conditions: in vivo
Rattus norvegicus [17] = species: Rattus norvegicus; assay: Oral effective dose required for inhibition of Ang II pressor response in rats; format: functional
Rattus norvegicus [18] = assay: Percent inhibition was evaluated to inhibit Ang II pressor response in conscious rats at oral dose 1 mg/kg; format: functional
[19] = biological target: T3, Type-1 angiotensin II receptor (Oryctolagus cuniculus, UniProt P34976); assay: Inhibitory activity was evaluated against angiotensin II type 1 rabbit aorta; format: tissue-based
T3 sequence (P34976 whole entry): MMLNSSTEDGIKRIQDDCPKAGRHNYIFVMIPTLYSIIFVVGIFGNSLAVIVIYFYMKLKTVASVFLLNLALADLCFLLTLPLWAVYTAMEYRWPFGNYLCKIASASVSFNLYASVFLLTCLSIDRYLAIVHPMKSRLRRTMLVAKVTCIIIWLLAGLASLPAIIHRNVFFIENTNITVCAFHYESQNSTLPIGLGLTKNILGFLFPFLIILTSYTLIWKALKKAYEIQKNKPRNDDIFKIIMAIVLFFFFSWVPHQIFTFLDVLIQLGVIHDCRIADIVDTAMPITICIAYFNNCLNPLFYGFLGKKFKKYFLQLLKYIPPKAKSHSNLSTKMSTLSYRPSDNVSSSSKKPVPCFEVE

Rattus norvegicus [20] = species: Rattus norvegicus; assay: Oral effective dose required for lowering blood pressure in spontaneous hypertensive rats (SHR); format: functional

Q: Which results are given for `CCCCc1nc(Cl)c(CO)n1Cc1ccc(-c2ccccc2-c2nnn[nH]2)cc1` [LOSARTAN]?
A: ED30 (Rattus norvegicus [1]): 0.78 mg/kg; IC50 (HASMC): 0.71 nM; ED30 (Rattus norvegicus [2]): 0.59 mg/kg; Kb (Oryctolagus cuniculus): 22 nM; pKB (Oryctolagus cuniculus): 8.2

Q: Which results are given for `CCCCc1nc(SC)c(C(=O)O)n1Cc1ccc(-c2ccccc2S(=O)(=O)NC(=O)NCCC)cc1`?
A: pD'2 (Rattus norvegicus [3]): 10.15; ED50 (Rattus norvegicus [4]): 0.11 mg/kg; IC50 [5]: 920 nM; ED50 (Rattus norvegicus [6]): 0.7 mg/kg

Q: For `CCc1cc2c(c(CC)n1)CCC(=O)N2Cc1ccc(-c2ccccc2-c2nnn[nH]2)cc1`, which ED50 (Rattus norvegicus [7]) is on record?
A: 0.19 mg/kg

Q: What about the IC50 [8] of the same molecule?
A: 3.8 nM

Q: Which ED50 (Rattus norvegicus [9]) does the source give for `CCCCc1ncc(/C=C(\Cc2cccs2)C(=O)O)n1Cc1ccc(C(=O)O)cc1` [EPROSARTAN] here?
A: 5.5 mg/kg

Q: And the ED50 (Rattus norvegicus [10])?
A: 0.08 mg/kg

Q: With `CCc1cc(OCc2ccc(-c3ccccc3-c3nnn[nH]3)cc2)c2ccccc2n1` as the molecule, how does the IC50 [8] read?
A: 30 nM

Q: What does the source list for `CCCc1nc(C)n2[nH]c(=O)nc2c1Cc1ccc(-c2ccccc2-c2nnn[nH]2)cc1`?
A: Ki [11]: 24 nM; Kb (Oryctolagus cuniculus): 0.29 nM

Q: Which IC50 [12] does the source give for `CCCCC(=O)N(Cc1ccc(-c2ccccc2-c2nnn[nH]2)cc1)[C@H](C(=O)O)C(C)C` here?
A: 2.7 nM

Q: For `CCCN(Cc1ccc(-c2ccccc2-c2nn[nH]n2)cc1)c1ncccc1C(=O)O`, which bioavailability [13] is on record?
A: > 50%

Q: What about the Ki [14] of the same molecule?
A: 0.76 nM

Q: What about the bioavailability [15] of the same molecule?
A: > 50%

Q: What about the bioavailability [16] of the same molecule?
A: > 50%

Q: With `CCOc1nc2cccc(C(=O)OC(C)OC(=O)OC3CCCCC3)c2n1Cc1ccc(-c2ccccc2-c2nn[nH]n2)cc1` (configuration not stated) [CANDESARTAN CILEXETIL] as the molecule, how does the ED50 (Rattus norvegicus [17]) read?
A: 0.069 mg/kg

Q: With `CCCCc1nc2ccc(NC(=O)N(C)C(C)C)cc2c(=O)n1Cc1ccc(-c2ccccc2-c2nn[nH]n2)cc1` as the molecule, how does the inhibition in vivo at 1 mg/kg (Rattus norvegicus [18]) read?
A: 84%

Q: For `CCc1nc2c(CC)cn(Cc3ccc(-c4ccccc4-c4nn[nH]n4)cc3)n2n1`, which IC50 [19] is on record?
A: 1.7 nM

Q: Which “Log Ki” value [14] does the source give for `COc1c(OCc2ccc(-c3ccccc3-c3nn[nH]n3)cc2)cc(C)nc1C` here?
A: -8.7

Q: What about the ED50 (Rattus norvegicus [20]) of the same molecule?
A: 0.48 mg/kg

Q: And the ED50 (Rattus norvegicus [2])?
A: 2.5 mg/kg
